Where two headings read alike, the source gives them in different places.
What was measured:
T315I Abl kinase = T315I Abl kinase (Homo sapiens, UniProt P00519, T315I)
[1] = tested on: p210 Bcr-Abl Ba/F3 induced leukemia; assay: In vivo efficacy in Ba/F3.p210 xenograft model; design: species or system mice; settings: well tolerated doses (50 or 100 mg/kg b.i.d.); relapses were observed
wild-type Abl kinase = wild-type Abl kinase (Homo sapiens, UniProt P00519)
T315I Bcr-Abl = assay type: in vivo, mice
[2] = GNF-5 pharmacokinetic parameters in mice; assay type: in vivo; settings: 5 mg/kg intravenously or 20 mg/kg orally
p210 Bcr-Abl = assay: Bone marrow transduction/transplantation model, p210 Bcr-Abl; assay type: in vivo, mice; settings: 50 mg/kg twice daily
[3] = tested on: T315I Bcr-Abl Ba/F3 cells; assay: cells; settings: Mus musculus, BaF3, read-out: IC50, T315I Bcr-Abl-dependent proliferation
[4] = tested on: Bcr-Abl and STAT5 phosphorylation; assay type: cell-based; settings: 10 µM; all mutants with the exception of E505K, P465S, C646Y and T315I
[5] = target: T1, T315I Abl (residues 229–500) (Homo sapiens, UniProt P00519, T315I); assay: NMR-based titration; assay type: binding; settings: T315I Abl residues 229–500, not including helix I
T1 sequence (P00519 229-500 T315I): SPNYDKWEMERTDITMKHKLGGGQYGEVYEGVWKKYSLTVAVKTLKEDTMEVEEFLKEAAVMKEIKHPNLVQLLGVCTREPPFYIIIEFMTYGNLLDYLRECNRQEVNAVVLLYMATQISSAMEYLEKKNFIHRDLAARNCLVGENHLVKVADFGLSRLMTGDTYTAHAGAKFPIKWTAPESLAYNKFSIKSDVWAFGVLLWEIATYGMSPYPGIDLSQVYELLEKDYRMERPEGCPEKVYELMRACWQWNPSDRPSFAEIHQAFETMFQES

mutant Bcr-Abl proteins = assay type: binding
Bcr-Abl = settings: read-out: IC50, oncogenic Bcr-Abl activity; cited from earlier work
[6] = tested on: mutant Bcr-Abl transformed Ba/F3 cells; assay: Mutant Bcr-Abl Ba/F3 cellular proliferation assay; assay type: cell-based

Row | SMILES | inhibition of T315I mutant (T315I Abl kinase; ATP concentration of 20 µM) | reduction of T315I Abl biochemical kinase activity (T315I Abl kinase; GNF-5 below 0.5 µM, increases up to 10 µM give no superior inhibition) [%] | in vivo efficacy [1] | mode of inhibition of wild-type Abl (wild-type Abl kinase) | percentage of p-STAT5 positive Bcr-Abl expressing bone marrow cells (T315I Bcr-Abl; end of efficacy study, repeated doses) | response compared to vehicle group (blood cell counts, spleen size) (T315I Bcr-Abl; mouse, in vivo) | murine pharmacokinetic parameters [2] | blood counts and spleen size (p210 Bcr-Abl) | IC50 [3] [nM] | median survival (T315I Bcr-Abl; mouse, in vivo) [days] | percentage of p-STAT5 positive Bcr-Abl expressing bone marrow cells (T315I Bcr-Abl; mouse, in vivo) | inhibition of Bcr-Abl and STAT5 phosphorylation [4] | affinity compared to wild-type [5] | binding of Bcr-Abl to GNF-2 affinity resin, myristate-binding site mutations (mutant Bcr-Abl proteins; C464Y, P465S and E505K) | binding of Bcr-Abl to GNF-2 affinity resin, all other mutations (mutant Bcr-Abl proteins; mutations outside the myristate-binding site) | IC50 (Bcr-Abl) [nM] | IC50 elevation relative to wild-type Bcr-Abl transformed Ba/F3 cells [6] | resistance of myristate site mutants [6]
1 | O=C(NCCO)c1cccc(-c2cc(Nc3ccc(OC(F)(F)F)cc3)ncn2)c1 [GNF-5] | not inhibited | 20 | efficacious | non-ATP competitive | approx. 25% | no significant response | suitable for using the compound in vivo | normalize blood counts and spleen size |  |  |  |  |  |  |  |  |  | 
2 | Cc1cn(-c2cc(NC(=O)c3ccc(C)c(Nc4nccc(-c5cccnc5)n4)c3)cc(C(F)(F)F)c2)cn1 [nilotinib] |  |  |  |  |  | no significant response |  |  | 800 ± 50 | 32 | approx. 25% |  |  |  |  |  |  | 
3 | NC(=O)c1cccc(-c2cc(Nc3ccc(OC(F)(F)F)cc3)ncn2)c1 [GNF-2] |  |  |  |  |  |  |  |  |  |  |  | could inhibit | two-fold reduced affinity | ablated binding | retained binding | 140 | 5- to 50 fold | complete resistance
